According to ChEMBL document CHEMBL1201862, “PubChem BioAssay data set” (2004):
The source made the active and inactive calls.

Legend:
[1] = target: E3 ubiquitin-protein ligase Mdm2 (Homo sapiens, UniProt Q00987); assay: enhancers of MDM2-luciferase reporter signal, concentration-effect titration, project on inhibitors of MDM2 ubiquitin ligase, cellular assay, luminescent readout, 384-well plate format (AID 1394); type: functional;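 note: MDM2 E3 inhibitors raise luminescence so EC50 is for signal enhancement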
Beta-galactosidase [2] = target: T1, Beta-galactosidase (Escherichia coli, UniProt Q8VNN2); assay: PubChem AID 485352; type: functional
[3] = Luminescence-based dose response cell-based high throughput screening assay for cytotoxic compounds using the IEC-6 intestinal epithelial cell line. [Related pubchem assays: 1858 (Summary AID.), 1825 (Counterscreen.), 1907 (Confirmation screen.)]; type: functional
[4] = target: T2, Type-1 angiotensin II receptor (Homo sapiens, UniProt P30556); assay: AT1 receptor antagonists, dose response, selectivity assay for APJ receptor antagonist project, cell-based, uHTS hits (AID 463214); type: functional;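 note: antagonist potency against angiotensin II stimulated AT1 response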
T2 sequence (P30556 whole entry): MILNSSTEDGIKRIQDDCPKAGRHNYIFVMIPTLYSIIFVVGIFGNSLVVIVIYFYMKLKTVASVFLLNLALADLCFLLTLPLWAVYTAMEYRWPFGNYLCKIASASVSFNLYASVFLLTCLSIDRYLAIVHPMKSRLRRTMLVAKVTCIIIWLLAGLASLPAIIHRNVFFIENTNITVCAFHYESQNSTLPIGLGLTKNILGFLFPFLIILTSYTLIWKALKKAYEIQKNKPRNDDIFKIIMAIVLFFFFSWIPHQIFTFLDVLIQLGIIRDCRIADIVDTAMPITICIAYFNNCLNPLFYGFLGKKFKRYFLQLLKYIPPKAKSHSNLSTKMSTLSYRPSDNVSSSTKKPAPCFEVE

[5] = target: T3, Kappa-type opioid receptor (Homo sapiens, UniProt P41145); type: functional
Beta-galactosidase [6] = target: T1, Beta-galactosidase; type: functional
[7] = target: T3, Kappa-type opioid receptor; type: functional; remark: listed apart in the source
[8] = cytotoxicity in HEK-293T cells, dose response, cytotoxicity control for TCR NF-kB inhibitor project, luminescence, T-cell screen hits (AID 489026); type: functional, cell-based;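 note: cells exposed to compound about 14 hours before the viability readout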
[9] = target: T4, Tyrosine-protein phosphatase non-receptor type 7 (Homo sapiens, UniProt P35236); type: functional
T4 sequence (P35236 whole entry): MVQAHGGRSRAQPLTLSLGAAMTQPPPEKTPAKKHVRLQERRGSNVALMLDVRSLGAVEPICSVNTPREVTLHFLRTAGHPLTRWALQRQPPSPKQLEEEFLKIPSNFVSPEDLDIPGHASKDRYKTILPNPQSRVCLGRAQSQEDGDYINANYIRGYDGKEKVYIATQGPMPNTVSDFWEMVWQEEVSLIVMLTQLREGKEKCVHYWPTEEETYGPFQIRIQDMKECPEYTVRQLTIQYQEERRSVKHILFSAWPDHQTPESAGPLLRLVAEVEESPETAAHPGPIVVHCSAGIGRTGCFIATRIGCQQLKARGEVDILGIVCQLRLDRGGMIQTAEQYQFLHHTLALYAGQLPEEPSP

[10] = target: Glyceraldehyde-3-phosphate dehydrogenase (Homo sapiens, UniProt P04406)
[11] = target: T5, Dual specificity protein phosphatase 6 (Rattus norvegicus, UniProt Q64346)
T5 sequence (Q64346 whole entry): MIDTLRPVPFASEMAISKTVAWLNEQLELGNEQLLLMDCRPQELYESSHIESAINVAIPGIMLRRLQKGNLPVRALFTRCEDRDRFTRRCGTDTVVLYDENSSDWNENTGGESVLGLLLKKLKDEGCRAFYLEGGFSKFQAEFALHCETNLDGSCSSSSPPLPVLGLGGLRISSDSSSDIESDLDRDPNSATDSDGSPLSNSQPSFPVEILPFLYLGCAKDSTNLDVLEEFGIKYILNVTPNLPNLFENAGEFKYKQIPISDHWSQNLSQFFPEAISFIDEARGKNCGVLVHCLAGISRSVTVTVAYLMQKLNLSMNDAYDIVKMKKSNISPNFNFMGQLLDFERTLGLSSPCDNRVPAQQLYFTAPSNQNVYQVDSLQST

[12] = target: T6, Dual specificity protein phosphatase 3 (Homo sapiens, UniProt P51452); assay: SAR VHR1 Fluorescent Assay for In Vitro dose response studies. [Related pubchem assays (depositor defined):AID1654, AID1661, AID1878, AID1992, AID2004, AID2070, AID2085]; type: functional
[13] = target: T6, Dual specificity protein phosphatase 3; assay: MOA VHR1 Fluorescent secondary assay for identification of redox-state modulating compounds. [Related pubchem assays (depositor defined):AID1654, AID1661, AID1878, AID1957]
[14] = target: T4, Tyrosine-protein phosphatase non-receptor type 7; assay: redox-dependent HePTP inhibition, mechanism study, biochemical, fluorescence (AID 2068); type: functional
[15] = target: T5, Dual specificity protein phosphatase 6; type: functional
[16] = target: T7, Eukaryotic translation initiation factor 4H (Homo sapiens, UniProt Q15056); assay: human eIF4H binding inhibitors, primary screen, translation initiation inhibitor project, biochemical, uHTS, fluorescence polarization (AID 2012)
[17] = target: T8, Polyadenylate-binding protein 1 (Homo sapiens, UniProt P11940); assay: PABP poly(A) RNA binding inhibitors, primary screen, biochemical, fluorescence polarization, uHTS (AID 2014)
[18] = target: T7, Eukaryotic translation initiation factor 4H; assay: eIF4H inhibition in translation initiation, SAR follow-up (AID 435011); type: functional
[19] = target: T8, Polyadenylate-binding protein 1; assay: PABP inhibition in translation initiation, SAR follow-up (AID 435018); type: functional
[20] = target: T9, Carboxy-terminal domain RNA polymerase II polypeptide A small phosphatase 1 (Homo sapiens, UniProt Q9GZU7); assay: inhibitors of CTDSP1, concentration-response testing, biochemical assay, absorbance-based, actives from ultra-high-throughput screening (AID 540297); type: functional
T9 sequence (Q9GZU7 whole entry): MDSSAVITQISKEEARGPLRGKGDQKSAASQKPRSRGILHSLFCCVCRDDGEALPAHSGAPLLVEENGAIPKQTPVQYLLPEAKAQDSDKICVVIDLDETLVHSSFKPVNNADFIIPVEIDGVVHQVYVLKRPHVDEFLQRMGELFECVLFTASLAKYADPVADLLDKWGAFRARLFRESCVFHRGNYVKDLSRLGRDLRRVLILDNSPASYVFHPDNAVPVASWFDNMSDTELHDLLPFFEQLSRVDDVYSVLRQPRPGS

[21] = cytotoxicity in BJeHLT fibroblasts, dose response, counter-screen for Ras selective lethality project, BJeHLT cells, dry powder (AID 493052); type: functional, cell-based; details: Homo sapiens
[22] = viability loss in HRASV12 DRD fibroblasts, dose response, cell-based, DRD BJ fibroblasts, dry powder (AID 493049); type: functional
[23] = viability loss in BJeLR (HRASV12) cells, primary screen, Ras selective lethality project, cell-based, Alamar Blue, dry powder (AID 493045); type: functional
[24] = cytotoxicity in BJeH fibroblasts, dose response, counter-screen for Ras selective lethality project, BJeH cells, dry powder (AID 493054); type: functional, cell-based
Mu-type opioid receptor = Mu-type opioid receptor (Homo sapiens, UniProt P35372); assay: SAR Analysis of Antagonists of the MOR Receptor using an Image-Based Assay - Set 3. [Related pubchem assays (depositor defined):AID1777, AID1785, AID1786, AID1966, AID2133, AID2136, AID2284, AID2285, AID2420]; type: functional
[25] = target: T3, Kappa-type opioid receptor; assay: SAR analysis of small molecule antagonists of the kappa opioid receptor via a luminescent beta-arrestin assay - Set 4. [Related pubchem assays (depositor defined):AID1777, AID1778, AID1785, AID1786, AID1966, AID2133, AID2136, AID2285]; type: functional
[26] = target: Delta-type opioid receptor (Homo sapiens, UniProt P41143); assay: SAR Analysis of Antagonists of the DOR Receptor using an Image-Based Assay - Set 3. [Related pubchem assays (depositor defined):AID1777, AID1785]; type: functional;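 note: U2OS cells expressing DOR1 and beta-arrestin GFP stimulated with 100 nM SNC80; imaging of GFP-tagged beta-arrestin moving into spots after receptor activation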
[27] = target: T3, Kappa-type opioid receptor; assay: SAR analysis of Antagonists of the Kappa Opioid Receptor (KOR) using an Image-Based Assay - Set 4. [Related pubchem assays (depositor defined):AID1777, AID1785]; type: functional
[28] = target: C-C chemokine receptor type 6 (Homo sapiens, UniProt P51684); assay: CCR6 receptor antagonists, dose response, cell-based, luminescent beta-arrestin readout (AID 504728); type: functional
Beta-galactosidase [29] = target: T1, Beta-galactosidase; assay: beta-galactosidase enzyme inhibitors and activators, dose response, artefact control for CCR6 antagonist project, biochemical, E. coli enzyme, set 3 (AID 504712); type: functional
[30] = target: Heat shock protein HSP 90-alpha (Homo sapiens, UniProt P07900); type: functional, organism-based
Vero = Vero cell cytotoxicity, cytotoxicity control for flavivirus capping enzyme inhibitors (AID 588742); type: functional; details: Chlorocebus sabaeus
Genome polyprotein = Genome polyprotein (dengue virus type 2, UniProt P29990); assay: Dengue-2 NS5 methyltransferase inhibitors, primary screen, biochemical, confirmation dose response (AID 588689); type: functional
[31] = HeLa cell cytotoxicity, dose response, cytotoxicity control for MgcRacGAP inhibitor project (AID 624300); type: functional
[32] = target: T10, Rac GTPase-activating protein 1 (Homo sapiens, UniProt Q9H0H5); assay: MgcRacGAP GTPase-activating activity inhibitors, confirmation, biochemical, ADP Hunter fluorescence, primary and confirmatory (AID 624330); type: functional
T10 sequence (Q9H0H5 whole entry): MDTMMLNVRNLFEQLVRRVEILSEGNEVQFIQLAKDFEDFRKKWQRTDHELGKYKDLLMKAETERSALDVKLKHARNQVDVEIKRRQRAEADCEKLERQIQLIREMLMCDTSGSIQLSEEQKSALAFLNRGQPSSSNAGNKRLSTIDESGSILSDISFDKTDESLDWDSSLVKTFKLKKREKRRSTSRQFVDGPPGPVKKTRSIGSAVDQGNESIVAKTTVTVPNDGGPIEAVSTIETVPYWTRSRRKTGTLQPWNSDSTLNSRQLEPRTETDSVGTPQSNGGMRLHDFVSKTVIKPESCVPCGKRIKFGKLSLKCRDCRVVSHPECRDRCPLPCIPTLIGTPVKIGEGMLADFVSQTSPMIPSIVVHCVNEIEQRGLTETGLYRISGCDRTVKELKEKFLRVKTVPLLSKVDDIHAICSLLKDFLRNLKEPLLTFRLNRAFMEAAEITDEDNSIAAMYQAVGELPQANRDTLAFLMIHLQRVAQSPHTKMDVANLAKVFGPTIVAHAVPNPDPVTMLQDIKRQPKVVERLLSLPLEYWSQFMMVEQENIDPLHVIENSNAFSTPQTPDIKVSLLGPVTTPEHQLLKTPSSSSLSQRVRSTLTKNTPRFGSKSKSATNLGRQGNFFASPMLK

Paired box protein Pax-8 = Paired box protein Pax-8 (Homo sapiens, UniProt Q06710); assay: inhibitors of PAX8-driven TPO luciferase reporter, dose response, RMG-I cells, cherry-pick (AID 687027); type: functional, cell-based;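 note: luciferase reporter driven by Pax8 target thyroperoxidase promoter measured by SteadyGlo luminescence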
[33] = HepG2 cell cytotoxicity, dose response, cytotoxicity control, cherry-picks, set 5 (AID 1053118); type: functional, cell-based
[34] = HEK293 cell cytotoxicity, dose response, cytotoxicity control, cherry-picks, set 5 (AID 1053117); type: functional, cell-based
[35] = A549 cell cytotoxicity, dose response, cytotoxicity control, cherry-picks, 26 µM top dose (AID 1053119); type: functional, cell-based
[36] = non-specific cell cytotoxicity, dose response, cytotoxicity control for PAX8 inhibitor project, plate reader, dry powder samples (AID 743021); type: functional, cell-based
[37] = inhibitors of fibronectin matrix deposition, dose response, AH1F cells, Alexa488-FN fluorescence, cherry-picks (AID 1035475); type: functional, cell-based
Protein Tat = Protein Tat (Human immunodeficiency virus type 1 group M subtype B (isolate HXB2)(HIV-1), UniProt P04608); type: functional;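 note: tat binding to TAR RNA read out by fluorescence polarization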
[38] = THP-1 cell cytotoxicity, dose response, cytotoxicity control for Vif-APOBEC3G degradation inhibitor project, THP-1 cells (AID 1117359); type: functional; details: Human immunodeficiency virus 1, THP-1

T3 sequence (P41145 whole entry): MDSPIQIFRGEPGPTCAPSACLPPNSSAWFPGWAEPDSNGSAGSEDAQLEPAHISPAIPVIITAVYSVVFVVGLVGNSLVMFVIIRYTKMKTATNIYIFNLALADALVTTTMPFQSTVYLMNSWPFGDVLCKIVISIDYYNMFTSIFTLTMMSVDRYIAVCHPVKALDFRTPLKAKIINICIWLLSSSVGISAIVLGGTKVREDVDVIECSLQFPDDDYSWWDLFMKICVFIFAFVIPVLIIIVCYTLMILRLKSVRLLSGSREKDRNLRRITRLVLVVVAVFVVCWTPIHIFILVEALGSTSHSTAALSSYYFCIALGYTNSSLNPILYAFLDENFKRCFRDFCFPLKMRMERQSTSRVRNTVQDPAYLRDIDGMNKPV
T1 sequence (Q8VNN2 whole entry): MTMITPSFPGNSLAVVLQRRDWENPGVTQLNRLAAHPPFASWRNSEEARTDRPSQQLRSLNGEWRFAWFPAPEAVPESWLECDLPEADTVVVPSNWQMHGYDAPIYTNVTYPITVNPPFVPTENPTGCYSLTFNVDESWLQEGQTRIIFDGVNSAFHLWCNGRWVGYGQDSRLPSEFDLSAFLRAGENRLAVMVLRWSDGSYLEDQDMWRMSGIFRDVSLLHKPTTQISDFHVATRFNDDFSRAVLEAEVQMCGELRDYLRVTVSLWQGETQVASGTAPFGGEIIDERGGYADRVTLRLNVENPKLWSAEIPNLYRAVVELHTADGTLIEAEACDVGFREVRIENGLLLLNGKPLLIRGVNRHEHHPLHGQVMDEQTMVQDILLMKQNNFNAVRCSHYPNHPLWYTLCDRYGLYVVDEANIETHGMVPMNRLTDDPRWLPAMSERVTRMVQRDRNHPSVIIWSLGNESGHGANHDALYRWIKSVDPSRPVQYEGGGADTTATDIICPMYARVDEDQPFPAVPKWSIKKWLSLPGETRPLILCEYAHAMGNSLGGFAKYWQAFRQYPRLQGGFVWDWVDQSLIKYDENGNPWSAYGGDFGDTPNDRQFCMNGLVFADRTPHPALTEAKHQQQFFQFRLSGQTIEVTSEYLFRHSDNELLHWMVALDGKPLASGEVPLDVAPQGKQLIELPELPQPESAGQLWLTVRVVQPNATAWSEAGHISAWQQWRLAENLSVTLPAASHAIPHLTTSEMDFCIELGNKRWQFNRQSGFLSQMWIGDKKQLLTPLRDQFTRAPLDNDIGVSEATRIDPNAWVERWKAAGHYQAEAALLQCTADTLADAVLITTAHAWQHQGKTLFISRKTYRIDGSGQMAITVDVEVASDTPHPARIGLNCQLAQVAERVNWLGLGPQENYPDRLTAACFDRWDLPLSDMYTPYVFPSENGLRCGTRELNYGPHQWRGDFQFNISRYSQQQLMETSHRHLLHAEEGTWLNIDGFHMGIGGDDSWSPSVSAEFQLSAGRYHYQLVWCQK
T6 sequence (P51452 whole entry): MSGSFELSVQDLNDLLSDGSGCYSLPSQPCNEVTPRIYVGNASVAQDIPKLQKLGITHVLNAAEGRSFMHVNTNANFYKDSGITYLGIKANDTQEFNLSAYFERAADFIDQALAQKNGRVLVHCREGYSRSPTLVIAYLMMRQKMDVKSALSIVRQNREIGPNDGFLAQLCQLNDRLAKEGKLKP
T8 sequence (P11940 whole entry): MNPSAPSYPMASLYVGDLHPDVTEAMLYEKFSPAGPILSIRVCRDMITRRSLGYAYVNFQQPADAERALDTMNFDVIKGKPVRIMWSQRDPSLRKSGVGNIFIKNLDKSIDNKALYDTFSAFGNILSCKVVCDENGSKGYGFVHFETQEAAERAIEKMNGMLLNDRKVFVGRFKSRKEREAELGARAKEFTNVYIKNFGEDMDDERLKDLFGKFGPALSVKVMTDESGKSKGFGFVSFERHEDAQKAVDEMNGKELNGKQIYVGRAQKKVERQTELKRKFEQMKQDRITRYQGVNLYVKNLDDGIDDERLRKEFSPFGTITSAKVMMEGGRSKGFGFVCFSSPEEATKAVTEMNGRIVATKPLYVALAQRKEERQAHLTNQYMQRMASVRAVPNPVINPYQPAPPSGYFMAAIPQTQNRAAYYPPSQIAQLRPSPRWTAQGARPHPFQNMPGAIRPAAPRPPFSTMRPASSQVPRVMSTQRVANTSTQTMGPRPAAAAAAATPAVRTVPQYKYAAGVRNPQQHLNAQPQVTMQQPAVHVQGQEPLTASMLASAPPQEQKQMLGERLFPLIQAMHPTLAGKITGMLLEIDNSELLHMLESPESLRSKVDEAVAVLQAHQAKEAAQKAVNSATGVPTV
Chain of Protein Tat (P04608 whole entry): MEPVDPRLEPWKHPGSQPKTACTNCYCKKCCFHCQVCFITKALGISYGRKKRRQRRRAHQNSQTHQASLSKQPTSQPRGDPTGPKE
Chain of Glyceraldehyde-3-phosphate dehydrogenase (P04406 whole entry): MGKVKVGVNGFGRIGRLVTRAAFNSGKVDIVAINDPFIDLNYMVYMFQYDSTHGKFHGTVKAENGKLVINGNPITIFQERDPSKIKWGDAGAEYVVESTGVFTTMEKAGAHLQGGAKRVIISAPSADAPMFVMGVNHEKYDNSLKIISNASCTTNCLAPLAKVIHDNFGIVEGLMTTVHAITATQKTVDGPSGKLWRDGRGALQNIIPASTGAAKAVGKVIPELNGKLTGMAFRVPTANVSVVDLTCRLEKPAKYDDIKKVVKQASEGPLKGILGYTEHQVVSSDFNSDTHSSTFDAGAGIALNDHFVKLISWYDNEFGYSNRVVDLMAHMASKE
Chain of E3 ubiquitin-protein ligase Mdm2 (Q00987 whole entry): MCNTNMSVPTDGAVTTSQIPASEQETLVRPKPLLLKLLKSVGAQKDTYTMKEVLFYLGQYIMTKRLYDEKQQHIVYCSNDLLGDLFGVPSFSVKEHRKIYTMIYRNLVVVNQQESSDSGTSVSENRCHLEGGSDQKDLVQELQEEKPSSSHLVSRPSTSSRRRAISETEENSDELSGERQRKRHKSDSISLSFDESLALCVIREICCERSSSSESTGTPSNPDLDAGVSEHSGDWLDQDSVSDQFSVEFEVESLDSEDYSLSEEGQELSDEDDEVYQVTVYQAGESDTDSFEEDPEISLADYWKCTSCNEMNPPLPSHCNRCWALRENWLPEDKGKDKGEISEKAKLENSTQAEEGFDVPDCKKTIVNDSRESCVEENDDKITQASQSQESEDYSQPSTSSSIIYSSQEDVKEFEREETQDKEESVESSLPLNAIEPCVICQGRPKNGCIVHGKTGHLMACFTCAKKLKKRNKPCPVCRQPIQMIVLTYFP
Chain of Mu-type opioid receptor (P35372 whole entry): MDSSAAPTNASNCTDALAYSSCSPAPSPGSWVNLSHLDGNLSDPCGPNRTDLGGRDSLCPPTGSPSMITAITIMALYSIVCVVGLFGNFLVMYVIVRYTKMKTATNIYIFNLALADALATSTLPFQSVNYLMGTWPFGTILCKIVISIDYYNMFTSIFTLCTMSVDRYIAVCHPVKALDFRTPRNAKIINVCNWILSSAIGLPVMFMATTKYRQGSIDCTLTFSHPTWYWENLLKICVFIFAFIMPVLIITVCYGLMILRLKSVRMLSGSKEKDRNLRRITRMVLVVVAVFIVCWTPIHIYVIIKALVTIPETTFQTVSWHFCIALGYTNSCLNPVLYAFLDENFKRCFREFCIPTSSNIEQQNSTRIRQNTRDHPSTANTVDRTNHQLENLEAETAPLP
Chain of C-C chemokine receptor type 6 (P51684 whole entry): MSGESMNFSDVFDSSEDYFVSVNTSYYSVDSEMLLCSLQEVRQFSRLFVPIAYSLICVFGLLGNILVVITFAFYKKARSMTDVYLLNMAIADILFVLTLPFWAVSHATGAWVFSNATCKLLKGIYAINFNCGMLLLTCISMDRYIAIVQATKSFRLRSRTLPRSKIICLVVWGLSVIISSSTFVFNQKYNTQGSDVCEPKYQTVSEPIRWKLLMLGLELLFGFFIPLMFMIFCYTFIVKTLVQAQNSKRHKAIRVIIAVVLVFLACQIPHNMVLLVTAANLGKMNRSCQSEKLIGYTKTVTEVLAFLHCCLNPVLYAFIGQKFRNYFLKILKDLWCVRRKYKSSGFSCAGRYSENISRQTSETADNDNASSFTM
Chain of Paired box protein Pax-8 (Q06710 whole entry): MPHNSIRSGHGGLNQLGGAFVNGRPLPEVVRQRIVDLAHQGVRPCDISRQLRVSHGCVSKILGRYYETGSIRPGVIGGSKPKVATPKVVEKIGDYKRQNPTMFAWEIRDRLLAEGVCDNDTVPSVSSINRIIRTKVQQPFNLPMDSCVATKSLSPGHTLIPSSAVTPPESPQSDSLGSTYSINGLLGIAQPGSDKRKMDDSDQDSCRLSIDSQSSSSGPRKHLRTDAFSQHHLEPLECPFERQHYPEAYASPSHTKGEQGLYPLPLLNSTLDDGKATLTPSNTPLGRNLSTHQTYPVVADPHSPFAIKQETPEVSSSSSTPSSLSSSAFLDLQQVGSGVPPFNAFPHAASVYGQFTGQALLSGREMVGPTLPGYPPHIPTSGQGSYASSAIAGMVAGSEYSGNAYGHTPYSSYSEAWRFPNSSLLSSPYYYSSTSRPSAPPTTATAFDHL

COc1ccc(C[S+]([O-])/C(Cl)=C(/Cl)C(=O)Nc2ccc(OC)nc2)cc1 (stereo not drawn)
8.26 µM: IC50 [7]
active: EC50 [1] 0.56 µM | IC50 [3] 1.65 µM | IC50 [4] 2.92 µM | IC50 [5] 5.22 µM
inactive: EC50 (Beta-galactosidase [2]) > 40 µM | EC50 (Beta-galactosidase [6]) > 31.5 µM | IC50 [8] 31.5 µM

O=C(O)c1ccc(-c2ccc(/C=c3\sc4nc5ccccc5n4c3=O)o2)cc1
> 100 µM (not active): IC50 [10]
active: IC50 [9] 3.26 µM | IC50 [11] 8.6 µM | IC50 [12] 33.5 µM | IC50 [13] 6.21 µM | IC50 [14] 5.78 µM | IC50 [15] 6.59 µM

CC(C)c1ccc(OC(=O)c2cccc(S(=O)(=O)N3CCN(C)CC3)c2)cc1
active: IC50 [17] 6.93 µM | IC50 [18] 27.6 µM | IC50 [19] 15.7 µM | IC50 [20] 11.6 µM
inactive: IC50 [16] > 100 µM

COc1ccc(N(C(=O)CCl)C(C(=O)NCCc2ccccc2)c2nc(C)cs2)cc1Cl (stereo not drawn)
active: AC50 [21] 19.8 µM | AC50 [22] 8.54 µM | AC50 [23] 8.26 µM | AC50 [24] 32.7 µM

Cc1ccc(S(=O)(=O)N2CCc3ccc(C(=O)NCCN(Cc4ccccc4)C(C)C)cc3C2)cc1
inactive: IC50 [25] 10.2 µM | IC50 [26] > 32 µM | IC50 [27] > 32 µM
active: IC50 (Mu-type opioid receptor) 2.89 µM

CC1OC(CC(=O)O)CC2=C1C(=O)c1c(O)cccc1C2=O (stereo not drawn) [NANAOMYCIN]
active: AC50 [30] 0.262 µM | CC50 (Vero) 0.72 µM | IC50 (Genome polyprotein) 5.04 µM | CC50 [31] 5.86 µM | IC50 [32] 76.4 µM | AC50 (Paired box protein Pax-8) 0.469 µM | AC50 [33] 0.37 µM | AC50 [34] 2.5 µM | AC50 [35] 0.485 µM | AC50 [36] 3.45 µM | AC50 [37] 0.779 µM | IC50 (Protein Tat) > 100 µM | CC50 [38] 0.69 µM
inactive: IC50 [28] > 66.6 µM | IC50 (Beta-galactosidase [29]) > 66.6 µM
